This passage reports inhibition in vivo and inhibition results from patent US20120029016A1, “Indoles Useful in the Treatment of Inflammation” (BIOLIPOX AB, priority 2008, published 2012).

The subject of experiment [1] is cysteinyl leukotrienes concentration in the peritoneal lavage. In words: Mouse peritoneal inflammation model (zymosan ip), cysteinyl leukotrienes in peritoneal lavage by EIA. The format is in vivo, Male BALB/c mice. The conditions noted are these: 0.5 h, 5 min before zymosan, lavage 30 min after zymosan, read-out: %-inhibition of cysteinyl leukotrienes concentration vs vehicle treated mice; for inhibition in vivo at 3 mg/kg: 3 mg/kg ip; for inhibition in vivo at 10 mg/kg: 10 mg/kg ip. The method, then: The in vivo efficacy of leukotriene biosynthesis inhibitors was assed by using a model of peritoneal inflammation. Male BALB/c mice (weighing 20-25 grams) received an intraperitoneal injection (ip) of 0.5 ml zymosan dissolved in phosphate buffer saline (PBS) (pH 7.5, 1 mg/mL). 5 Minutes before the zymosan injection compounds (1-10 mg/kg) or vehicle were administered ip (10 mL/kg). 30 min after the zymosan injection the mice were anaesthetized and the peritoneal cavity was flushed with 4 mL PBS. The peritoneal lavage was centrifuged at 6000 rcf for 5 minutes and the cysteinyl leukotrienes concentration in the supernatant was determined by EIA. The cysteinyl leukotrienes concentration in the peritoneal lavage from compound treated mice was compared to vehicle treated mice and the % inhibition was calculated.

Experiment [2] has as its target T1, Recombinant human LTC4 synthase (Homo sapiens, UniProt Q16873).
T1 construct: made in house; host or cells: Pichia pastoris ('Piccia pastoralis' [sic])
T1 sequence (Q16873 1-150): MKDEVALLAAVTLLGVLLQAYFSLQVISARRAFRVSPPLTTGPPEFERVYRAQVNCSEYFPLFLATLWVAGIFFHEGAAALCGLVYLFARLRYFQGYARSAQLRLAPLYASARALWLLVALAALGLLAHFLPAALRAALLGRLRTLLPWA
Briefly: In vitro assay Method B: LTC4 synthase, LTA4 to LTC4, HTRF detection. The format is biochemical. The conditions noted are these: total concentration of title compound 10 μM, read-out: % inh. of LTC4 synthase. The method, then: In the assay, LTC4 synthase catalyses the reaction where the substrate LTA4 is converted to LTC4. Recombinant human LTC4 synthase is expressed in Piccia pastoralis and the purified enzyme is dissolved in 25 mM Tris-buffer pH 7.8 and stored at −20° C. The assay is performed in phosphate buffered saline (PBS) pH 7.4, supplemented with 5 mM glutathione (GSH). The assay is performed at rt in 384-well plates. Analysis of the formed LTC4 is performed using costume made homogenous time-resolved fluorescence (HTRF) detection (Cisbio).
The following is added chronologically to each well: • 1. 50 μL assay buffer, PBS with 5 mM GSH. • 2. 0.5 μL inhibitor in DMSO. • 3. 2 μl LTC4 synthase in PBS. The total protein concentration in this solution is 0.025 mg/ml. Incubation of the plate at rt for 10 min. • 4. 1-1.5 μL LTA4 (final conc. 2.5 μM). Incubation of the plate at rt for 1 min. 10 μL of the incubation mixture is analysed using HTRF detection.

The target of experiment [3] is T1, Recombinant human LTC4 synthase. In words: In vitro assay Method A: LTC4 synthase, LTA4 methyl ester to LTC4 methyl ester, HPLC. The format is biochemical. Conditions: total concentration of title compound 10 μM, read-out: % inh. of LTC4 synthase. The procedure:
In the assay, LTC4 synthase catalyses the reaction where the substrate LTA4 methyl ester is converted to the corresponding LTC4 methyl ester. Recombinant human LTC4 synthase is expressed in Piccia pastoralis and the purified enzyme is dissolved in 25 mM Tris-buffer pH 7.8 and stored at −20° C. The assay is performed in phosphate buffered saline (PBS) pH 7.4, supplemented with 5 mM glutathione (GSH). The reaction is terminated by addition of MeCN/MeOH/acetic acid (50/50/1). The assay is performed at rt in 96-well plates. Analysis of the formed LTC4 methyl ester is performed with reversed phase HPLC (Waters 2795 utilizing an Onyx Monolithic C18 column). The mobile phase consists of MeCN/MeOH/H2O (32.5/30/37.5) with 1% acetic acid, pH adjusted with NH3 to 5.6, and absorbance measured at 280 nm with a Waters 2487 UV-detector.
The following is added chronologically to each well: • 1. 50 μL assay buffer, PBS with 5 mM GSH. • 2. 0.5 μL inhibitor in DMSO. • 3. 2 μL LTC4 synthase in PBS. The total protein concentration in this solution is 0.025 mg/mL. Incubation of the plate at rt for 10 min. • 4. 1-1.5 μL LTA4 methyl ester (final conc. 10 μM). Incubation of the plate at rt for 1 min. • 5. 50 μL stop solution. 80 μL of the incubation mixture is analysed with HPLC.

Take `O=C(O)Cc1c(C(=O)O)c2cc(Oc3ccc(OC(F)(F)F)cc3)ccc2n1-c1ccc(OC2CCCCC2)cc1` [Example 4:5, 2-Carboxymethyl-1-(4-cyclohexyloxyphenyl)-5-(4-trifluoromethoxyphenoxy)indole-3-carboxylic acid]: in experiment [1], the inhibition in vivo at 3 mg/kg worked out at 97%. Also, the inhibition at 10 µM in experiment [2] was determined as 99%.
As to `CC(C)Oc1ccc(Oc2ccc3c(c2)c(C(=O)O)c(CC(=O)O)n3-c2ccc(Oc3ccc(Cl)cc3)cc2)cc1` [Example 3:3, 2-Carboxymethyl-1-[4-(4-chlorophenoxy)phenyl]-5-(4-isopropoxy-phenoxy)indole-3-carboxylic acid], the inhibition in vivo at 10 mg/kg in experiment [1] is 100%. Moreover, the inhibition at 10 µM in experiment [2] amounted to 96%.
Regarding `CC(C)Oc1ccc(Oc2ccc3c(c2)c(C(=O)O)c(CC(=O)O)n3-c2ccc(OCc3ccc4ccccc4n3)cc2)cc1` [1:10, 2-Carboxymethyl-1-5-(4-isopropoxyphenoxy)-[4-(2-quinolinylmethoxy)-phenyl]indole-3-carboxylic acid], the inhibition at 10 µM in experiment [3] came to 98%.
As for `CC(C)Oc1ccc(Oc2ccc3c(c2)c(C(=O)O)c(CC(=O)O)n3-c2ccc(OCc3ccccn3)cc2)cc1` [Example 1:9, 2-Carboxymethyl-1-5-(4-isopropoxyphenoxy)-[4-(2-pyridinylmethoxy)-phenyl]indole-3-carboxylic acid], the inhibition in vivo at 3 mg/kg in experiment [1] was found to be 97%. In addition, in experiment [2], the inhibition at 10 µM worked out at 98%.
Take `CC(C)Oc1ccc(Oc2ccc3c(c2)c(C(=O)O)c(CC(=O)O)n3-c2ccc(OCc3ccccc3C(F)(F)F)cc2)cc1` [Example 1:8, 2-Carboxymethyl-1-5-(4-isopropoxyphenoxy)-[4-(2-trifluoromethyl-benzyloxy)phenyl]indole-3-carboxylic acid]: the inhibition in vivo at 10 mg/kg in experiment [1] came to 96%. Moreover, the inhibition at 10 µM in experiment [2] turned out to be 98%.
Consider `O=C(O)Cc1c(C(=O)O)c2cc(Oc3ccc(OC(F)(F)F)cc3)ccc2n1-c1ccc(NCc2ccccc2)cc1` [6:9, 1-(4-benzylaminophenyl)-2-carboxymethyl-5-(4-trifluoromethoxy-phenoxy)indole-3-carboxylic acid], for which the inhibition at 10 µM in experiment [2] amounted to 100%.
On the same count and under the same terms, then `O=C(O)Cc1c(C(=O)O)c2cc(Oc3ccc(OC(F)(F)F)cc3)ccc2n1-c1ccc(NCc2cccnc2)cc1` [6:1, 2-Carboxymethyl-1-[4-(3-pyridinylmethylamino)phenyl]-5-(4-trifluoromethoxyphenoxy)indole-3-carboxylic acid], with 100%; and `O=C(O)Cc1c(C(=O)O)c2cc(Oc3ccc(OC4CC4)cc3)ccc2n1-c1ccc(OC2CCCC2)cc1` [4:4, 2-Carboxymethyl-1-(4-cyclopentyloxyphenyl)-5-(4-cyclopropoxyphenoxy)-indole-3-carboxylic acid], with 98%; and `O=C(O)Cc1c(C(=O)O)c2cc(Oc3ccc(OC(F)(F)F)cc3)ccc2n1-c1ccc(OC2CCCC2)cc1` [4:2, 2-Carboxymethyl-1-(4-cyclopentyloxyphenyl)-5-(4-trifluoromethoxyphenoxy)indole-3-carboxylic acid], with 100%.
On the same count and under the same terms, then `CC(C)Oc1ccc(Oc2ccc3c(c2)c(C(=O)O)c(CC(=O)O)n3-c2ccc(OCc3ccc(Cl)cc3)cc2)cc1` [1:6, 2-Carboxymethyl-1-[4-(4-chlorobenzyloxy)phenyl]-5-(4-isopropoxy-phenoxy)indole-3-carboxylic acid], with 95%; and `CCCCCCCCNc1ccc(-n2c(CC(=O)O)c(C(=O)O)c3cc(Oc4ccc(OC(F)(F)F)cc4)ccc32)cc1` [6:7, 2-Carboxymethyl-1-(4-octylaminophenyl)-5-(4-trifluoromethoxyphenoxy)-indole-3-carboxylic acid], with 98%.
For `O=C(O)Cc1c(C(=O)O)c2cc(Oc3ccc(OC(F)(F)F)cc3)ccc2n1-c1ccc(OCc2ccccc2)cc1` [Example 2:1, 1-(4-Benzyloxyphenyl)-2-carboxymethyl-5-(4-trifluoromethoxyphenoxy)indole-3-carboxylic acid], the inhibition at 10 µM in experiment [3] amounted to 89%.
Turning to `CC(C)Oc1ccc(Oc2ccc3c(c2)c(C(=O)O)c(CC(=O)O)n3-c2ccc(OC3CCCC3)cc2)cc1` [Example 4:1, 2-Carboxymethyl-1-(4-cyclopentyloxyphenyl)-5-(4-isopropoxyphenoxy)-indole-3-carboxylic acid], the inhibition in vivo at 10 mg/kg in experiment [1] turned out to be 96%. For the same compound, in experiment [2], the inhibition at 10 µM came out at 98%.
Take `CC(C)Oc1ccc(Oc2ccc3c(c2)c(C(=O)O)c(CC(=O)O)n3-c2ccc(OCc3ccc(Cl)c(Cl)c3)cc2)cc1` [1:4, 2-Carboxymethyl-1-[4-(3,4-dichlorobenzyloxy)phenyl]-5-(4-isopropoxyphenoxy)indole-3-carboxylic acid]: the inhibition at 10 µM in experiment [2] came out at 93%.
The same measure, in the same setting: then `CC(C)Oc1ccc(Oc2ccc3c(c2)c(C(=O)O)c(CC(=O)O)n3-c2ccc(OCc3ccccc3Cl)cc2)cc1` [1:3, 2-Carboxymethyl-1-[4-(2-chlorobenzyloxy)phenyl]-5-(4-isopropoxy-phenoxy)indole-3-carboxylic acid], with 95%.
For `CC(C)Oc1ccc(Oc2ccc3c(c2)c(C(=O)O)c(CC(=O)O)n3-c2ccc(OCc3ccccc3)cc2)cc1` [Example 1:1, 1-(4-Benzyloxyphenyl)-2-carboxymethyl-5-(4-isopropoxyphenoxy)indole-3-carboxylic acid], the inhibition in vivo at 1 mg/kg in experiment [1] (1 mg/kg ip) worked out at 78%. For the same compound, in experiment [1], the inhibition in vivo at 3 mg/kg was 92% and the inhibition in vivo at 10 mg/kg is 100%. Moreover, the inhibition at 10 µM in experiment [2] worked out at 99%.
Regarding `COc1ccc(COc2ccc(-n3c(CC(=O)O)c(C(=O)O)c4cc(Oc5ccc(OC(C)C)cc5)ccc43)cc2)cc1` [Example 1:5, 2-Carboxymethyl-1-5-(4-isopropoxyphenoxy)-[4-(4-methoxybenzyloxy)-phenyl]indole-3-carboxylic acid], the inhibition in vivo at 10 mg/kg in experiment [1] was found to be 92%. Moreover, the inhibition at 10 µM in experiment [2] was 97%.
Turning to `CC(C)Oc1ccc(Oc2ccc3c(c2)c(C(=O)O)c(CC(=O)O)n3-c2ccc(OCc3cccc(Cl)c3)cc2)cc1` [1:7, 2-Carboxymethyl-1-[4-(3-chlorobenzyloxy)phenyl]-5-(4-isopropoxy-phenoxy)indole-3-carboxylic acid], in experiment [2], the inhibition at 10 µM was 94%.
With `CCCCCCCCOc1ccc(-n2c(CC(=O)O)c(C(=O)O)c3cc(Oc4ccc(OC(C)C)cc4)ccc32)cc1` [Example 5:2, 2-Carboxymethyl-1-(4-octyloxyphenyl)-5-(4-isopropoxyphenoxy)indole-3-carboxylic acid], the inhibition in vivo at 3 mg/kg in experiment [1] worked out at 94%. For the same compound, in experiment [2], the inhibition at 10 µM turned out to be 97%.
For `CC(C)Oc1ccc(Oc2ccc3c(c2)c(C(=O)O)c(CC(=O)O)n3-c2ccc(OC3CCC(C)(C)CC3)cc2)cc1` [Example 5:1, 2-Carboxymethyl-1-[4-(4,4-dimethylcyclohexyloxy)phenyl]-5-(4-isopropoxyphenoxy)indole-3-carboxylic acid], the inhibition at 10 µM in experiment [2] stood at 97%.
